Measured values as given in patent US10597398B2, “Suppression and regeneration promoting effect of low molecular weight compound on cancer and fibrosis” (NATIONAL UNIVERSITY CORPORATION TOTTORI UNIVERSITY, priority 2015, dated 2020).

Columns and labels:
Format in all cases: cell-based, human
[1] = test system: HuH-7 cells; test: Growth inhibitory effect on cancer cells (WST assay), Example 2.3; conditions: for IC50: HuH-7 cells, WST assay, concentrations 0-50 μM, control 0.1% DMSO; for IC50 compared with IC-2: comparison with IC-2
Description: HuH-7 cells, a human liver cancer cell line, were cultured on 10-cm cell culture dishes (TPP Techno Plastic Products AG, Trasadingen, Switzerland) by using DMEM under conditions at 5% CO2, 37° C., and 100% humidity. When the cells were 70 to 90% confluent, 200 μL of 0.25% Trypsin/1 mM EDTA solution, which had been prepared by diluting the stock solution 10-fold with PBS (−), was added to detach the cells. Then, the cells were centrifuged at 1000 rpm for 3 min at room temperature. The cells recovered were subcultured at a 1:4 split ratio.
First, 70 to 90% confluent HuH-7 cells were harvested and seeded (n=3) at 5×10^3 cells/well of a 96-well plate (TPP). After 24 h, each compound was added to the cells and the mixture was cultured at 37° C. The concentrations of each compound were 0, 10, 20, 30, 40, and 50 μM. For IC-2-506-1, however, the concentrations used were 0, 10, 20, 25, 30, 40, and 50 μM. Each control sample (0 μM) used was 0.1% DMSO, a solvent for each compound.
Next, 0, 24, 48, and 96 h after the compound treatment, 100 μIL of DMEM-diluted 10% Cell Counting Kit-8 (DOJINDO LABORATORIES, Kumamoto) was added. The mixture was incubated at 37° C. for 60 min and its absorbance (at a measurement wavelength of 450 nm/control wavelength of 600 nm) was measured by using a Sunrise Rainbow RC (Tecan Group Ltd., Mannedorf, Switzerland). Absorbance for the cells alone was calculated by subtracting, from the reading obtained, absorbance for 10% Cell Counting Kit-8 alone.
The “*” in figures indicates a significant difference of p<0.05 between 0.1% DMSO and each compound; and the “**” indicates a significant difference of p<0.01 (the same applies to all the figures in Examples).

[2] = test system: Wnt/β-catenin signaling; test: Inhibitory effect on Wnt/β-catenin signaling in liver stellate cells (LX-2, TCF4 luciferase); conditions: concentration equal to or lower than that of IC-2
Description: While each compound was added at concentrations where the cell growth of fibrosis-causing liver stellate LX-2 cells was reduced to about 50 to 80%, Wnt/β-catenin signaling activity was measured. […] The concentrations of the respective compounds were as described in FIG. 41. Each control sample used was 0.1% DMSO, a solvent for each compound.
LX-2 cells, which were cultured and maintained by using 10% FBS/DMEM, were harvested and seeded (n=3) in 1% FBS/DMEM at 4.0×10^4 cells per well of a 24-well plate. Next, 25 μL of Opti-MEM (Gibco, Life Technologies Corp., Carlsbad, Calif.) containing 50 ng of pTCF4-CMVpro-GL4.20, having 3 copies of TCF motifs (CCT TTG ATC) upstream of a CMV promoter in a multiple cloning site of pGL4.20 (Promega), and 5 ng of pRL-CMV Vector (Promega) and 25 μL of Opti-MEM containing 0.4 μL of Lipofectamine 2000 (Invitrogen, Life Technologies Corp., Carlsbad, Calif.) were mixed and incubated at room temperature for 20 min. At 20 h after the cell seeding, the mixture was added to each well, so that both reporter plasmids were transiently transfected into the cells. After additional 4 h, 2.5 ng/mL of TGF-β and each compound were added to the cells and the mixture was cultured at 37° C.
At 24 and 48 h after the compound treatment, the culture medium was discarded, and 100 μL of room temperature 5×Passive Lysis Buffer (PLB), which had been diluted 5-fold with MilliQ water, was added to each well. Next, the plate was shaken at room temperature for 15 min and was then frozen at −30° C. overnight. A Luciferase Assay Substrate was diluted with 10 mL of room temperature Luciferase Assay Buffer II to prepare Luciferase Assay Reagent II (LARII). Then, 1 μL of Stop&Glo Substrate was diluted with 49 μL of room temperature Stop&Glo Buffer to prepare Stop&Glo (Promega) in a quantity enough for samples.
The frozen PLB lysate samples were thawed and permeabilized for 15 min. After that, 50 μl aliquots of LARII were dispensed into 3.5 mL test tubes (Sarstedt, AG & Co., Numbrecht, Germany) and 10 μL of each frozen PLB lysate sample was added and mixed well. Subsequently, luminescence was quantified by using a MiniLumat LB 9506 (Berthold Technologies GmbH & Co, Bad Wildbad, Germany) to measure firefly luciferase activity. After the measurement, 50 μL of Stop&Glo was added and mixed well and luminescence was then quantified by using the MiniLumat LB 9506 to determine Renilla luciferase activity. The measurement results were obtained by dividing the firefly luciferase activity by the Renilla luciferase activity.

[3] = test system: Wnt/β-catenin signaling; test: Inhibitory effect on Wnt/β-catenin signaling in mesenchymal stem cells (E7-TCF4 luciferase); conditions: for inhibitory effect on Wnt/β-catenin signaling in mesenchymal stem cells: E7-TCF4 cells, day 8 after compound addition, compared with control 0.1% DMSO; for inhibitory effect on Wnt/β-catenin signaling pathway in mesenchymal stem cells compared with IC-2: concentration equal to or lower than that of IC-2
Description: A pTCF4-CMVpro-GL4.20 plasmid vector, having 3 copies of TCF4 motifs (CCT TTG ATC) upstream of aCMV promoter in a multiple cloning site of pGL4.20 (Promega Corp., Fitchburg, Wis.), was linearized and stably transfected into UE7T-13 cells to prepare E7-TCF4 cells. Also, a pCMVpro-GL4.20 plasmid vector, having a CMV promoter in a multiple cloning site of pGL4.20, was linearized and stably transfected into UE7T-13 cells. The resulting stable cells (E7-CMV cells) were cultured, like UE7T-13 cells, in 10% FBS/DMEM containing 0.25 μg/mL puromycin.
UE7T-13 cells were used to measure Wnt/β-catenin signaling activity. The concentrations of the respective compounds were as described in FIG. 42. Each control sample used was 0.1% DMSO, a solvent for each compound.
First, 70 to 90% confluent E7-TCF4 cells and E7-CMV cells were harvested and seeded (n=3) at 1.6758×10^4 cells/well of a 24-well plate (9.0×10^3 cells/cm^2). One day after that, each compound was added to the cells and the mixture was cultured at 37° C. Day 4 after the compound addition, the culture medium was changed.
At day 1, 4, or 8 after the compound treatment, the culture medium was discarded, and 100 μL of room temperature 5×Passive Lysis Buffer (PLB), which had been diluted 5-fold with MilliQ water, was added to each well. Next, the plate was shaken at room temperature for 15 min and was then frozen at −30° C. overnight. A Luciferase Assay Substrate was diluted with 10 mL of room temperature Luciferase Assay Buffer II to prepare Luciferase Assay Reagent II (LARII). The frozen PLB lysate samples were thawed and permeabilized for 15 min. Then, 10 μL aliquots were added to wells of a 96-well white plate. While 50 μL aliquots of LARII were each added to each well, luminescence was quantified by using a 1420 multi-label counter ARVO MX to determine firefly luciferase activity.

[4] = test system: LX-2 cells; test: Anti-fibrosis effect, summary statements on Example 3 (marker not specified); conditions: for anti-fibrosis effect compared with IC-2, equal or higher concentration: concentration equal to or higher than that of IC-2
Description: α-Smooth muscle actin (α-SMA), a fibrosis marker, was used as an indicator, and RNA was collected from LX-2 cells treated with each low-molecular-weight compound. Next, an inhibitory effect on fibrosis was examined by real-time RT-PCR.
In addition, instead of α-SMA, another fibrosis marker collagen, type I, alpha 1 (COL1A1) was used as an indicator, and substantially the same protocol was repeated. The concentrations of each compound used were as described in FIG. 34. Each control sample used was 0.1% DMSO, a solvent for each compound. Here, COL1A1 primers used were 5′-CCT CCA GGG CTC CAA CGA G-3′ and 5′-TCAATCACTGTCTTGCCCCA-3′. The annealing was performed at 58° C. for 5 sec. The measurement results were obtained by dividing the calculated value for the COL1A1 gene by the calculated value for the GAPDH gene.

[5] = test system: Wnt/β-catenin signaling; test: Inhibitory effect on Wnt/β-catenin signaling in liver cancer cells (HuH7-TCF4 luciferase); conditions: concentration equal to or lower than that of IC-2
Description: A pTCF4-CMVpro-GL4.20 plasmid vector, which had been constructed by inserting 3 copies of TCF4 motifs (CCT TTG ATC) upstream of a CMV promoter into a multiple cloning site of pGL4.20 (Promega Corp., Fitchburg, Wis.), was linearized and stably transfected into the HuH-7 cells. The resulting stable cells (HuH7-TCF4 cells) and HuH-7 cells were likewise cultured.
While each compound was added at concentrations where the growth of HuH-7 cells was reduced to about 50% or less, Wnt/β-catenin signaling activity was measured. The concentrations of the respective compounds were as described in FIG. 40. Control samples used were 0.1% DMSO, a solvent for each compound, and 0.5 μM 5-FU.
First, 70 to 90% confluent HuH7-TCF4 cells were harvested and seeded (n=3) at 5.0×10^4 cells/well of a 24-well plate (TPP). After 24 h, each compound was added to the cells and the mixture was cultured at 37° C.
At 48 h after the compound treatment, the culture medium was discarded, and 100 μL of room temperature 5×Passive Lysis Buffer (PLB) (Promega Corp., Fitchburg, Wis.), which had been diluted 5-fold with MilliQ water, was added to each well. Next, the plate was shaken at room temperature for 15 min and was then frozen at −30° C. overnight. A Luciferase Assay Substrate was diluted with 10 mL of room temperature Luciferase Assay Buffer II to prepare Luciferase Assay Reagent II (LARII) (Promega). The frozen PLB lysate samples were thawed and permeabilized for 15 min. Then, 10 μL aliquots were added to wells of a 96-well white plate (Corning Inc., Corning, N.Y.). While 50 μL aliquots of LARII were each added to each well, luminescence was quantified by using a 1420 multi-label counter ARVO MX (PerkinElmer Singapore Pte Ltd., Singapore) to determine firefly luciferase activity. Note that a significant difference was evaluated by using (two-tailed) Student's t-test. The “*” in figures indicates a significant difference of p<0.05 between 0.1% DMSO and each compound; and the “**” indicates a significant difference of p<0.01 (the same applies to all the figures in Examples).

Row | Structure (SMILES) | IC50 [1] [µM] | IC50 compared with IC-2 [1] | inhibitory effect on Wnt/β-catenin signaling pathway in liver stellate cells compared with IC-2 [2] | anti-fibrosis effect compared with IC-2, equal or higher concentration [4] | inhibitory effect on Wnt/β-catenin signaling pathway in liver cancer cells compared with IC-2 [5] | other results
1 | O=C1C(Cc2ccccc2)N2C(=O)CCN(c3ccccc3[N+](=O)[O-])C2CN1Cc1cccc2ccccc12 (stereo not drawn) [Compound 7c-NT] | 36.1 |  | more potent inhibitory effect |  |  | inhibitory effect on Wnt/β-catenin signaling in mesenchymal stem cells [3]: all the compounds except for IC-2-Ar-OMe, 9b, and 7c-NT exhibited a significant inhibitory effect
2 | O=C1C(Cc2ccccc2)N2C(=O)CCN(C(=O)NCc3ccccc3)C2CN1Cc1cccc(Cl)c1Cl (stereo not drawn) [IC-2-506-1] | 14.1 | lower IC50 than IC-2 | more potent inhibitory effect | more potent anti-fibrosis effect | more potent inhibitory effect | anti-tumor effect compared with IC-2 ([1]; at a concentration lower than that of IC-2): more potent anti-tumor effect
3 | O=C1C(Cc2ccccc2)N2C(=O)CCN(C(=O)NCc3ccccc3)C2CN1Cc1ccc(Cl)c(Cl)c1 (stereo not drawn) [IC-2-506-3] | 18.3 | lower IC50 than IC-2 | more potent inhibitory effect |  |  | anti-fibrosis effect compared with IC-2, lower concentration ([4]; concentration even lower than that of IC-2): more potent anti-fibrosis effect
4 | COc1ccc(CN2CC3N(C(=O)NCc4ccccc4)CCC(=O)N3C(Cc3ccccc3)C2=O)cc1 (stereo not drawn) [IC-2-Ar-OMe] |  |  |  |  |  | inhibitory effect on Wnt/β-catenin signaling in mesenchymal stem cells [3]: all the compounds except for IC-2-Ar-OMe, 9b, and 7c-NT exhibited a significant inhibitory effect
5 | O=C1C(Cc2ccccc2)N2C(=O)CCN(C(=O)NCc3ccccc3)C2CN1Cc1ccc([N+](=O)[O-])cc1 (stereo not drawn) [IC-2-Ar—NO2] |  |  |  |  |  | inhibitory effect on Wnt/β-catenin signaling pathway in mesenchymal stem cells compared with IC-2 [3]: more potent inhibitory effect

Further lines, with some results ahead:

Row | IC50 [1] [µM] | IC50 compared with IC-2 [1] | Structure (SMILES) | inhibitory effect on Wnt/β-catenin signaling pathway in liver stellate cells compared with IC-2 [2] | anti-fibrosis effect compared with IC-2, equal or higher concentration [4] | inhibitory effect on Wnt/β-catenin signaling pathway in liver cancer cells compared with IC-2 [5] | other results
6 | 45.1 |  | O=C1C(Cc2ccccc2)N2C(=O)CCN(C(=O)NCc3ccccc3)C2CN1Cc1ccc(Cl)cc1 (stereo not drawn) [IC-2-Ar—Cl] |  | more potent anti-fibrosis effect | more potent inhibitory effect | inhibitory effect on Wnt/β-catenin signaling pathway in mesenchymal stem cells compared with IC-2 [3]: more potent inhibitory effect
7 | 33.5 |  | O=C1C(Cc2ccccc2)N2C(=O)CCN(C(=O)NCc3ccc(O)cc3)C2CN1Cc1cccc2ccccc12 (stereo not drawn) [IC-2-OH] |  | more potent anti-fibrosis effect | more potent inhibitory effect | 
8 | 20.3 | lower IC50 than IC-2 | COCOc1ccc(CNC(=O)N2CCC(=O)N3C(Cc4ccccc4)C(=O)N(Cc4cccc5ccccc45)CC23)cc1 (stereo not drawn) [IC-2-OMOM] |  |  | more potent inhibitory effect | 
9 | 34.9 |  | COc1ccc(CNC(=O)N2CCC(=O)N3C(Cc4ccccc4)C(=O)N(Cc4cccc5ccccc45)CC23)cc1 (stereo not drawn) [IC-2-OMe] |  |  | more potent inhibitory effect | 
